Results as given in PMC10452110, “Indole-3-Acetamido-Polyamines as Antimicrobial Agents and Antibiotic Adjuvants” (Biomolecules, 2023).
Like-named read-outs stand apart in the source and are kept apart here.

What was measured:
[1] = system: Staphylococcus aureus (ATCC 25923); experiment: Intrinsic antimicrobial activity (MIC) against S. aureus; assay type: cell-based
Experimental: (§1) The susceptibility of bacterial strains Staphylococcus aureus (ATCC 25923), Escherichia coli (ATCC 25922) and Pseudomonas aeruginosa (ATCC 27853) to antibiotics and compounds was determined using previously reported protocols. Additional antimicrobial evaluation against MRSA (ATCC 43300), Klebsiella pneumoniae (ATCC 700603), Acinetobacter baumannii (ATCC 19606), Candida albicans (ATCC 90028) and Cryptococcus neoformans (ATCC 208821) was undertaken at the Community for Open Antimicrobial Drug Discovery at The University of Queensland (Australia) according to their standard protocols, as reported previously.

[2] = system: MRSA (ATCC 43300); experiment: Intrinsic antimicrobial activity (MIC) against MRSA; assay type: cell-based; conditions: Staphylococcus aureus, MRSA ATCC 43300; mean (n = 2); read-out: MIC MRSA
Experimental: as §1

[3] = system: Pseudomonas aeruginosa (ATCC 27853); experiment: Intrinsic antimicrobial activity (MIC) against P. aeruginosa; assay type: cell-based
Experimental: as §1

[4] = system: Escherichia coli (ATCC 25922); experiment: Intrinsic antimicrobial activity (MIC) against E. coli; assay type: cell-based
Experimental: as §1

[5] = system: Klebsiella pneumoniae (ATCC 700603); experiment: Intrinsic antimicrobial activity (MIC) against K. pneumoniae; assay type: cell-based
Experimental: as §1

[6] = system: Acinetobacter baumannii (ATCC 19606); experiment: Intrinsic antimicrobial activity (MIC) against A. baumannii; assay type: cell-based
Experimental: as §1

[7] = system: Candida albicans (ATCC 90028); experiment: Intrinsic antifungal activity (MIC) against C. albicans; assay type: cell-based
Experimental: as §1

[8] = system: Cryptococcus neoformans (ATCC 208821); experiment: Intrinsic antifungal activity (MIC) against C. neoformans; assay type: cell-based
Experimental: as §1

[9] = Cytotoxicity assay; assay type: cell-based; conditions: human; HEK293 cells; mean (n = 2); read-out: Cytotoxicity: concentration of compound at 50% cytotoxicity (IC50)
Experimental: Cytotoxicity assays were conducted using the protocols previously reported.

[10] = system: human red blood cells; experiment: Hemolytic assay; assay type: cell-based; conditions: mean (n = 2)
Experimental: Hemolysis assays were conducted using the protocols previously reported.

[11] = system: P. aeruginosa ATCC 27853; experiment: Enhancement of doxycycline action against P. aeruginosa; assay type: cell-based, Pseudomonas aeruginosa; conditions: doxycycline at 4.5 µM
Experimental: (§2) Antibiotic enhancer concentrations were determined using previously reported protocols.

[12] = system: E. coli ATCC 25922; experiment: Enhancement of erythromycin action against E. coli; assay type: cell-based, Escherichia coli; conditions: erythromycin at 10.9 µM
Experimental: as §2

[13] = ATCC25923, S. aureus ATCC 25923, mean (n = 3), read-out: MIC S. a
[14] = ATCC27853, P. aeruginosa ATCC 27853, mean (n = 3), read-out: MIC P. a
[15] = ATCC25922, E. coli ATCC 25922, mean (n = 3), read-out: MIC E. c
[16] = ATCC700603, K. pneumoniae ATCC 700603, mean (n = 2), read-out: MIC K. p
[17] = ATCC19606, A. baumannii ATCC 19606, mean (n = 2), read-out: MIC A. b
[18] = ATCC90028, C. albicans ATCC 90028, mean (n = 2), read-out: MIC C. a
[19] = ATCC208821, C. neoformans ATCC 208821, mean (n = 2), read-out: MIC C. n

SMILES	MIC ([1]; ATCC25923, read-out: MIC S. a)	MIC [2]	MIC ([3]; ATCC27853, read-out: MIC P. a)	MIC ([4]; ATCC25922, read-out: MIC E. c)	MIC ([5]; ATCC700603, read-out: MIC K. p)	MIC ([6]; ATCC19606, read-out: MIC A. b)	MIC ([7]; ATCC90028, read-out: MIC C. a)	MIC ([8]; ATCC208821, read-out: MIC C. n)	IC50 [9]	Hemolysis: concentration of compound at 10% hemolytic activity (HC10) [10]	Dox/P. a fold change (ratio between intrinsic MIC of the test compound and combination MIC) [11]	Dox/P. a: concentration required to restore doxycycline activity (combination MIC) [11]	Eryth/E. c: concentration required to restore erythromycin activity (combination MIC) [12]	MIC [1, 13]	MIC [3, 14]	MIC [4, 15]	MIC [5, 16]	MIC [6, 17]	MIC [7, 18]	MIC [8, 19]
O=C(Cc1c[nH]c2ccccc12)NCCCNCCCCCCCCCCNCCCNC(=O)Cc1c[nH]c2ccccc12.O=C(O)C(F)(F)F.O=C(O)C(F)(F)F [Compound 14e, N^1,N^10-Bis(3-(2-(1H-indol-3-yl)acetamido)propyl)decane-1,10-diaminium 2,2,2-trifluoroacetate]	3.77 µM	≤ 0.3 µM	60.3 µM	15.1 µM	> 39 µM	> 39 µM	≤ 0.3 µM	≤ 0.3 µM	> 39 µM	≤0.30 µM	4 fold	15.1 µM	15.1 µM	–	–	–	–	–	–	–
O=C(Cc1c[nH]c2ccccc12)NCCCNCCCCCCCCCCCCNCCCNC(=O)Cc1c[nH]c2ccccc12.O=C(O)C(F)(F)F.O=C(O)C(F)(F)F [Compound 14f, N^1,N^12-Bis(3-(2-(1H-indol-3-yl)acetamido)propyl)dodecane-1,12-diaminium 2,2,2-trifluoroacetate]	–	≤ 0.29 µM	–	–	–	–	–	–	> 37 µM	≤0.29 µM	4 fold	14.6 µM	14.6 µM	3.65 µM	58.3 µM	29.2 µM	> 37 µM	> 37 µM	≤ 0.29 µM	≤ 0.29 µM
O=C(Cc1c[nH]c2ccc(Br)cc12)NCCCNCCCCCCNCCCNC(=O)Cc1c[nH]c2ccc(Br)cc12.O=C(O)C(F)(F)F.O=C(O)C(F)(F)F [Compound 15b, N^1,N^6-Bis(3-(2-(5-bromo-1H-indol-3-yl)acetamido)propyl)hexane-1,6-diaminium 2,2,2-trifluoroacetate]	–	< 0.2 µM	–	–	–	–	–	–	> 34 µM	>34 µM	8 fold	26.9 µM	53.7 µM	13.4 µM	215 µM	26.9 µM	> 34 µM	> 34 µM	2.15 µM	< 0.2 µM
O=C(Cc1c[nH]c2ccc(Br)cc12)NCCCNCCCCCCCCNCCCNC(=O)Cc1c[nH]c2ccc(Br)cc12.O=C(O)C(F)(F)F.O=C(O)C(F)(F)F [Compound 15d, N^1,N^8-Bis(3-(2-(5-bromo-1H-indol-3-yl)acetamido)propyl)octane-1,8-diaminium 2,2,2-trifluoroacetate]	–	≤ 0.26 µM	–	–	–	–	–	–	> 33 µM	10.1 µM	> 4 fold	52.2 µM	52.2 µM	13 µM	> 209 µM	26.1 µM	> 33 µM	> 33 µM	2.09 µM	≤ 0.26 µM
O=C(Cc1c[nH]c2ccc(Br)cc12)NCCCNCCCCCCCCCCNCCCNC(=O)Cc1c[nH]c2ccc(Br)cc12.O=C(O)C(F)(F)F.O=C(O)C(F)(F)F [Compound 15e, N^1,N^10-Bis(3-(2-(5-bromo-1H-indol-3-yl)acetamido)propyl)decane-1,10-diaminium 2,2,2-trifluoroacetate]	–	≤ 0.25 µM	–	–	–	–	–	–	> 32 µM	≤0.25 µM	4 fold	12.7 µM	12.7 µM	6.33 µM	50.7 µM	12.7 µM	> 32 µM	> 32 µM	≤ 0.25 µM	≤ 0.25 µM
O=C(Cc1c[nH]c2ccc(Br)cc12)NCCCNCCCCCCCCCCCCNCCCNC(=O)Cc1c[nH]c2ccc(Br)cc12.O=C(O)C(F)(F)F.O=C(O)C(F)(F)F [Compound 15f, N^1,N^12-Bis(3-(2-(5-bromo-1H-indol-3-yl)acetamido)propyl)dodecane-1,12-diaminium 2,2,2-trifluoroacetate]	–	≤ 0.25 µM	–	–	–	–	–	–	4.75 µM	≤0.25 µM	2 fold	98.5 µM	24.6 µM	6.16 µM	197 µM	12.3 µM	> 32 µM	7.88 µM	≤ 0.25 µM	≤ 0.25 µM
COc1ccc2[nH]cc(CC(=O)NCCCNCCCCCCNCCCNC(=O)Cc3c[nH]c4ccc(OC)cc34)c2c1.O=C(O)C(F)(F)F.O=C(O)C(F)(F)F [Compound 16b, N^1,N^6-Bis(3-(2-(5-methoxy-1H-indol-3-yl)acetamido)propyl)hexane-1,6-diaminium 2,2,2-trifluoroacetate]	–	38 µM	–	–	–	–	–	–	> 38 µM	>38 µM	> 8 fold	25 µM	50 µM	50 µM	> 200 µM	100 µM	> 38 µM	> 38 µM	> 38 µM	≤ 0.3 µM
COc1ccc2[nH]cc(CC(=O)NCCCNCCCCCCCNCCCNC(=O)Cc3c[nH]c4ccc(OC)cc34)c2c1.O=C(O)C(F)(F)F.O=C(O)C(F)(F)F [Compound 16c, N^1,N^7-Bis(3-(2-(5-methoxy-1H-indol-3-yl)acetamido)propyl)heptane-1,7-diaminium 2,2,2-trifluoroacetate]	–	> 38 µM	–	–	–	–	–	–	> 38 µM	>38 µM	–	12.5 µM	50 µM	> 200 µM	> 200 µM	25 µM	> 38 µM	> 38 µM	> 38 µM	2.36 µM
COc1ccc2[nH]cc(CC(=O)NCCCNCCCCCCCCNCCCNC(=O)Cc3c[nH]c4ccc(OC)cc34)c2c1.O=C(O)C(F)(F)F.O=C(O)C(F)(F)F [Compound 16d, N^1,N^8-Bis(3-(2-(5-methoxy-1H-indol-3-yl)acetamido)propyl)octane-1,8-diaminium 2,2,2-trifluoroacetate]	–	2.32 µM	–	–	–	–	–	–	> 37 µM	>37 µM	–	6.25 µM	6.25 µM	25 µM	100 µM	6.25 µM	> 37 µM	> 37 µM	> 37 µM	≤ 0.29 µM
COc1ccc2[nH]cc(CC(=O)NCCCNCCCCCCCCCCNCCCNC(=O)Cc3c[nH]c4ccc(OC)cc34)c2c1.O=C(O)C(F)(F)F.O=C(O)C(F)(F)F [Compound 16e, N^1,N^10-Bis(3-(2-(5-methoxy-1H-indol-3-yl)acetamido)propyl)decane-1,10-diaminium 2,2,2-trifluoroacetate]	–	≤ 0.28 µM	–	–	–	–	–	–	> 36 µM	>36 µM	8 fold	14.1 µM	28.1 µM	7.03 µM	112 µM	14.1 µM	> 36 µM	> 36 µM	2.25 µM	≤ 0.28 µM
